{"source": "patent EP0793481B1", "about": "“COSMETIC COMPOSITION CONTAINING HYDROXY ALKANOATE DERIVATIVES” (priority 1993, dated 1995)", "key": {"[1]": {"experiment": "Lactic acid on tape strips from volar forearm after lauryl lactate dispersion", "assay_type": "in vivo, human", "parameters": "unit not given here", "settings": "2% by weight dispersion in water, 100 µl", "description": "This dispersion was tested on the volar forearm of a human volunteer. 100 µl of the dispersion was applied to each of three areas (15cm^2) on the volar forearm, rubbed in and allowed to dry. Ten Desquarne tape strips were taken fropm a fourth, untreated area. After 1 hour ten tape strips were taken from one treated area. Ten tape strips were taken from the other treated areas after 3 and 8 hours respectively. The tape strips taken after 1 hour and 3 hours were stored at room temperature for the rest of the 8 hour period, allowing enzymic hydrolysis.\nThe amount of lactic acid on each tape strip was determined, by the procedure quoted in Example 1. […] Moreover, this is at all levels, indicating penetration of the lactate ester into the skin where it is hydrolysed."}, "[2]": {"experiment": "Penetration of acyl lactylates: serial tape stripping of skin and lactate assay (Sigma 735-10) of the tapes", "settings": "result in words; 10% by weight solutions, four hours", "experimental": "The penetration of acyl lactylate and lactic acid in this manner can be determined by serial tape stripping and by biochemical assay of free lactate from skin cells adhering to the tape.\nThe methodology employed using pig skin is as follows:\nThe tape employed in this test is Desquame tape available from Diastron. Following topical application to skin of acyl lactylate, pieces of this tape are applied to the skin and then removed, and skin cells are assayed for lactate using Sigma 735-10 lactate assay kit. Thus, by repeated stripping of the same area of skin the degree of penetration of the topically applied acyl lactylate and its cleavage by epidermal esterases can be determined.\n10% by weight solutions of sodium lactate (control) and of five different sodium acyl lactylates having from C8 to C18 acyl chains, were prepared in pH 7.0 Sorenson's phosphate buffer, 5 mM. Seven pieces of full thickness skin, taken from pig ear, were cut to 4 x 4cm and pinned out. 100 µl aliquots of the 6 test solutions were applied to the entire surface of six pieces of skin, the remaining piece of skin was used as a no-treatment control. […]\nEach tape was placed in a labelled 1ml tube and 800µl of 5.00mM phosphate buffer, pH 7.00 was added to each tube. […] The buffer reagent mixture from each tube was then transferred to microcuvettes and the absorbtion of the solutions measured at 540nm using a spectrophotometer."}, "[3]": {"experiment": "Hydrolysis in skin: thin-layer chromatography of radiolabel extracted from tape strips", "assay_type": "in vitro ADME, pig", "settings": "after six hours; for metabolised at 6 h / remaining at 6 h: pig, ear skin, topical or ocular, mean of three repeats; for metabolised at 6 h: spot of hydrolysis products, read-out: % of total label, peak 1; for remaining at 6 h: spot of the applied compound itself, read-out: % of total label, peak 2", "description": "In a similar experiment nine tape strips were taken after six hours. The first three strips were incubated in 3ml of phosphate buffer. The next three strips and the final three strips were likewise incubated. After 30 minutes the buffer solutions were spotted onto a thin-layer chromatography plate (bearing silica gel as the stationary phase).\nThe plate was eluted with 80:20:2 hexane:ether:acetic acid mixture. The spots on the plate were detected and quantified by their emitted radiation. […] The results (mean of three repeats) were:\nThe results of thin layer chromatography, showing the extent of hydrolysis were: […]"}, "[4]": {"experiment": "Deposition of radiolabelled lactylate from diluted detergent composition after rinse-off, scintillation count of tape strips", "assay_type": "in vitro ADME, pig", "settings": "result in words, 0.12M, 100 µl, left for 10 seconds and rinsed off", "description": "Radiolabelled sodium lauroyl lactylate, as used in Example 2, was incorporated into a detergent composition containing\nThis solution was diluted with about four times its own volume of water, so that the concentration of sodium lauroyl lactylate was 0.12M.\n100 µl quantities of this diluted solution were applied to test pieces of pig ear, left for 10 seconds and rinsed off. Excess water was removed with cotton wool, and nine tape strips were taken. All the tape strips were placed in a vial with phosphate buffer and scintillation fluid. The radiolabel content was measured using a scintillation counter."}, "[5]": {"experiment": "Measurement of skin conductivity (SKICON 200) as index of skin moisturisation, panel of volunteers", "assay_type": "in vivo, human", "settings": "for mean adjusted SKICON 200 readings: 100mM in buffer (3.0%), 100µl, relative to pretreatment reading", "excerpt": "The topical application to skin of hydroxyalkanoate derivatives improves the retention of moisture by the skin and/or increases the level of moisture in the skin to a significant extent. […] An increase in skin conductivity is thus used as an index of increase in skin moisturisation.\nThis method measures the cumulative effect of applying products to the skin, on the conductivity of the superficial stratum corneum.\nIt is well established that the conductivity of the skin, as measured by placing the probe of a suitable conductivity meter in contact with the skin, is proportional to the water content of the outermost strata of the epidermis. The measurement of skin conductivity can therefore be used to indicate the ability of a topically applied product to hydrate the epidermis: see D. van Neste, J. Dermatol Sci., 2, p119 - 124, (1991), \"Comparative Study of Normal and Rough Human Skin Hydration in vivo: evaluation with four different instruments\". The method is widely used and accepted as indicative of product skin moisturisation efficacy.\nThe device for measuring skin conductivity employed in this test is the SKICON 200, a skin hygrometer available from IBS Co.\nA small panel of volunteers, greater than six in number and preferably from 12 to 20, is recruited for the test.\nTwo sites 3 x 4cm are marked onto each volar forearm at least 6cm from either the wrist or elbow and with a separation of at least 6cm. Each site is treated once a day for five consecutive days with 100µl of a single treatment material. Allocation of material to left or right arm, upper or lower site is varied to avoid site effects. A total of two treatment materials can be used, one site per panellist remaining untreated for the entire five day period.\nOn the first day of the test, panellists are allowed to equilibrate in a climate controlled environment (20°C 70% RH for 15 minutes with no significant sensory stimuli). Eight conductivity measurements are taken per site using random positions within the test site; these represent the baseline. 100µl of treatment material is then applied and gently rubbed into the test site for each of the three treatment sites. Further four sets of eight readings from the treatment sites are then taken one, two and four hours after application, again using the equilibration period in a climate controlled environment. This procedure is repeated on the following four days.\nThe effect of each treatment is then assessed using the following method: adjusted effect =(Mean treatment site reading)/(Mean pretreatment site reading) [formula]\nThis value is calculated for each treatment, for each timepoint on each day of treatment for each panellist, resulting in a final mean value for the adjusted effect for the entire panel also being obtained by calculation.\nThe following treatments were applied in this test • 1. 5mM Sorensons phosphate buffer pH 7.00 + 2% Nipagin • 2. 100mM Sodium dodecoyl lactylate in buffer (a concentration of 3.0%) • 3. No treatment\nThe results are shown in the table below which records the mean adjusted SKICON 200 readings (i.e. proportional to initial skin conductivity = moisturisation) at hourly periods up to 4 hours."}}, "note": "Like-named read-outs stand apart in the source and are kept apart here."}
{"smiles": "CCCCCCCCCCCCOC(=O)C(C)O", "note": "(centres unmarked) [Lauryl lactate]", "values": [{"measurement": "amount of lactic acid on each tape strip", "setting": "[1]; 1 Hour, Tape No 1", "value": 0.289}, {"measurement": "amount of lactic acid on each tape strip", "setting": "[1]; 1 Hour, Tape No 2", "value": 0.361}, {"measurement": "amount of lactic acid on each tape strip", "setting": "[1]; 1 Hour, Tape No 3", "value": 0.217}, {"measurement": "amount of lactic acid on each tape strip", "setting": "[1]; 1 Hour, Tape No 4", "value": 0.124}, {"measurement": "amount of lactic acid on each tape strip", "setting": "[1]; 1 Hour, Tape No 5", "value": 0.192}, {"measurement": "amount of lactic acid on each tape strip", "setting": "[1]; 1 Hour, Tape No 6", "value": 0.201}, {"measurement": "amount of lactic acid on each tape strip", "setting": "[1]; 1 Hour, Tape No 7", "value": 0.179}, {"measurement": "amount of lactic acid on each tape strip", "setting": "[1]; 1 Hour, Tape No 8", "value": 0.177}, {"measurement": "amount of lactic acid on each tape strip", "setting": "[1]; 1 Hour, Tape No 9", "value": 0.211}, {"measurement": "amount of lactic acid on each tape strip", "setting": "[1]; 1 Hour, Tape No 10", "value": 0.169}, {"measurement": "amount of lactic acid on each tape strip", "setting": "[1]; 3 Hours, Tape No 1", "value": 0.282}, {"measurement": "amount of lactic acid on each tape strip", "setting": "[1]; 3 Hours, Tape No 2", "value": 0.250}, {"measurement": "amount of lactic acid on each tape strip", "setting": "[1]; 3 Hours, Tape No 3", "value": 0.252}, {"measurement": "amount of lactic acid on each tape strip", "setting": "[1]; 3 Hours, Tape No 4", "value": 0.262}, {"measurement": "amount of lactic acid on each tape strip", "setting": "[1]; 3 Hours, Tape No 5", "value": 0.485}, {"measurement": "amount of lactic acid on each tape strip", "setting": "[1]; 3 Hours, Tape No 6", "value": 0.487}, {"measurement": "amount of lactic acid on each tape strip", "setting": "[1]; 3 Hours, Tape No 7", "value": 0.271}, {"measurement": "amount of lactic acid on each tape strip", "setting": "[1]; 3 Hours, Tape No 8", "value": 0.246}, {"measurement": "amount of lactic acid on each tape strip", "setting": "[1]; 3 Hours, Tape No 9", "value": 0.254}, {"measurement": "amount of lactic acid on each tape strip", "setting": "[1]; 3 Hours, Tape No 10", "value": 0.269}, {"measurement": "amount of lactic acid on each tape strip", "setting": "[1]; 8 Hours, Tape No 1", "value": 0.260}, {"measurement": "amount of lactic acid on each tape strip", "setting": "[1]; 8 Hours, Tape No 2", "value": 0.210}, {"measurement": "amount of lactic acid on each tape strip", "setting": "[1]; 8 Hours, Tape No 3", "value": 0.250}, {"measurement": "amount of lactic acid on each tape strip", "setting": "[1]; 8 Hours, Tape No 4", "value": 0.222}, {"measurement": "amount of lactic acid on each tape strip", "setting": "[1]; 8 Hours, Tape No 5", "value": 0.259}, {"measurement": "amount of lactic acid on each tape strip", "setting": "[1]; 8 Hours, Tape No 6", "value": 0.230}, {"measurement": "amount of lactic acid on each tape strip", "setting": "[1]; 8 Hours, Tape No 7", "value": 0.241}, {"measurement": "amount of lactic acid on each tape strip", "setting": "[1]; 8 Hours, Tape No 8", "value": 0.234}, {"measurement": "amount of lactic acid on each tape strip", "setting": "[1]; 8 Hours, Tape No 9", "value": 0.194}, {"measurement": "amount of lactic acid on each tape strip", "setting": "[1]; 8 Hours, Tape No 10", "value": 0.449}]}
{"smiles": "CC(O)C(=O)O", "note": "(centres unmarked) [G, sodium lactate, reference compound]", "values": [{"measurement": "penetration into the stratum corneum", "setting": "[2]", "value": "virtually no penetration occurs"}]}
{"smiles": "CCCCCCCCCCCC(=O)OC(C)C(=O)O", "note": "(centres unmarked) [Lauroyl lactylate, Sodium lauroyl lactylate]", "values": [{"measurement": "metabolised at 6 h", "setting": "[3]; Tapes 1-3", "value": 13.1, "unit": "%"}, {"measurement": "remaining at 6 h", "setting": "[3]; Tapes 1-3", "value": 8.9, "unit": "%"}, {"measurement": "metabolised at 6 h", "setting": "[3]; Tapes 4-6", "value": 35.1, "unit": "%"}, {"measurement": "remaining at 6 h", "setting": "[3]; Tapes 4-6", "value": 64.9, "unit": "%"}, {"measurement": "metabolised at 6 h", "setting": "[3]; Tapes 7-9", "value": 45.2, "unit": "%"}, {"measurement": "remaining at 6 h", "setting": "[3]; Tapes 7-9", "value": 54.8, "unit": "%"}, {"measurement": "hydrolysis in the skin", "setting": "[3]; result in words", "value": "had occurred in each instance and had occurred to the greatest extent with the material which had penetrated furthest into the skin"}, {"measurement": "deposition onto the skin", "setting": "[4]", "value": "a small proportion of the radiolabelled lactylate had deposited onto the skin"}]}
{"smiles": "CCCCCCCCCCCC(=O)OC(C)C(=O)O", "note": "(centres unmarked) [Na Acyl Lactylate, Sodium dodecoyl lactylate]", "values": [{"measurement": "mean adjusted SKICON 200 readings", "setting": "[5]; T=0 Hr", "value": 1.00}, {"measurement": "mean adjusted SKICON 200 readings", "setting": "[5]; T=1 Hr", "value": 1.27}, {"measurement": "mean adjusted SKICON 200 readings", "setting": "[5]; T=2 Hr", "value": 1.30}, {"measurement": "mean adjusted SKICON 200 readings", "setting": "[5]; T=4 Hr", "value": 1.31}, {"measurement": "moisturisation of the skin", "setting": "[5]; result in words, compared with the buffer alone", "value": "significant moisturisation of the skin was achieved"}]}
